# Positions of bridges follow the written chain, without caps; N, C: chain ends. Non-standard residues stand in square brackets, D forms with d. Residues, ends and D or L forms follow the SMILES beside them. No end group written: not given here. *: point of attachment. Pen = CC(C)(S)[C@H](N)C(=O)O; PhAc = O=C(Cc1ccccc1)*
# Biological target: VLA-4 (Homo sapiens, UniProt P05556+P13612)
# Experiment: In vitro binding assay: 51Cr-labeled Jurkat cells to solid phase-bound CS-1 peptide (SEQ ID NO:5)
# Type: cell-based
# Set-up: inflammatory cells that contain the VLA-4 receptor [Jurkat cells; host or cells: Jurkat cells (human T lymphoblastic line)
# Details: Table 1; normalized IC50 potency relative to standard peptide SEQ ID NO:6 (=1); Jurkat cells, CS-1
# Method: Binding inhibition is measured here as a concentration of peptide that inhibits one-half the binding between a standard number of Jurkat cells and a standard amount of CS-1 peptide bound to the surface of a microtiter plate well. Those concentrations are conveniently expressed as IC50 values, smaller numbers indicating a lower concentration required to inhibit 50 percent binding and therefore greater potency. Further specifics of this assay are provided hereinafter.
# Jurkat cells (ATCC TIB 152), a human T lymphoblastic line, labeled with ^51 chromium were used to assay in vitro binding inhibition provided by various peptides discussed herein.
# The plates were prepared as follows: The 25-mer CS-1 peptide (SEQ ID NO:5) dissolved at 0.5-1 μg/ml in a buffer of 0.1M NaHCO3 at pH 9.5 that also contained 10 μg/ml of bovine serum albumin (BSA) or a conjugate of the CS-1 peptide linked to ovalbumin (CS-1-OVA) dissolved at 1-2.5 μg/ml in the same buffer was used as the substrate. Each well of the microtiter plates was coated with 50 μl of substrate or buffer alone for controls. The wells were permitted to dry out completely and were then rinsed twice with PBS at pH 7.4. Non-specific binding sites of each well were then blocked using 200 μl per well of RPMI/1 percent BSA for two hours at room temperature. Both solid phase-affixed substrates provided similar results.
# Jurkat cells (3-5×10^6 cells) were placed into a 15 ml FALCON™ round-bottom tube with a cap. The tube was centrifuged, and the extra medium was then removed.
# Two hundred microliters of a ^51 Cr labeling solution were added to the centrifuged cells and maintained in contact with the cells for 90-120 minutes in a warm room. This procedure typically provides about 50,000-100,000 cpm/well with about 80-100 percent cell viability. Longer contact times provide a greater amount of labeling but lower cell viability.
# The labeled cells were washed with (i) complete medium, (ii) 1mM EDTA/PBS and then (iii) RPM1/1 percent BSA free of serum components. The cells were centrifuged after each washing. The cells were finally resuspended in serum-free RPMI/1 percent BSA at a concentration of 1×10^6 viable cells/ml, which provides a concentration that is diluted by one-half in the assay.
# Cyclic inhibitor peptides were prepared as stock solutions at 20 mg/ml in DMSO in 1.5 ml cryogenic screwcap vials, and were stored at -70° C. Using FLOW™ round-bottom or V-bottom microtiter plates, the inhibitor peptides were prepared at twice the assay concentration in RPMI/1 percent BSA at 60 μl/well.
# Four initial dilutions were typically used.
# The ^51 Cr-labeled cells (1×10^6 cells at 60 μl/well) were then admixed with the diluted cyclic peptide solutions. The admixtures were maintained at room temperature (about 22° C.) for 30 minutes.
# One hundred microliters of each inhibitor peptide/cell admixture were transferred to the substrate-coated wells. This was done in triplicate for each dilution. The resulting plates were incubated for 30 minutes at 37° C. and then washed gently three times with RPMI/1 percent BSA at 200 μl/well. Binding was observed microscopically, particularly after the second wash.
# The bound cells were then lysed by the addition of a 0.5 percent solution of sodium dodecylsulfate in water at 100 μl/well. The resulting solutions were then processed for counting and calculation of IC50 values following usual procedures. Appropriate positive and negative controls were used with each plate so that the results of separate assays could be normalized and compared.
# The potency data of Table 1 and Table 2 are so normalized. The absolute IC50 value for the peptide of SEQ ID NO:7 is 0.3 μM.
# VLA-4, sequence (P13612 34-1032): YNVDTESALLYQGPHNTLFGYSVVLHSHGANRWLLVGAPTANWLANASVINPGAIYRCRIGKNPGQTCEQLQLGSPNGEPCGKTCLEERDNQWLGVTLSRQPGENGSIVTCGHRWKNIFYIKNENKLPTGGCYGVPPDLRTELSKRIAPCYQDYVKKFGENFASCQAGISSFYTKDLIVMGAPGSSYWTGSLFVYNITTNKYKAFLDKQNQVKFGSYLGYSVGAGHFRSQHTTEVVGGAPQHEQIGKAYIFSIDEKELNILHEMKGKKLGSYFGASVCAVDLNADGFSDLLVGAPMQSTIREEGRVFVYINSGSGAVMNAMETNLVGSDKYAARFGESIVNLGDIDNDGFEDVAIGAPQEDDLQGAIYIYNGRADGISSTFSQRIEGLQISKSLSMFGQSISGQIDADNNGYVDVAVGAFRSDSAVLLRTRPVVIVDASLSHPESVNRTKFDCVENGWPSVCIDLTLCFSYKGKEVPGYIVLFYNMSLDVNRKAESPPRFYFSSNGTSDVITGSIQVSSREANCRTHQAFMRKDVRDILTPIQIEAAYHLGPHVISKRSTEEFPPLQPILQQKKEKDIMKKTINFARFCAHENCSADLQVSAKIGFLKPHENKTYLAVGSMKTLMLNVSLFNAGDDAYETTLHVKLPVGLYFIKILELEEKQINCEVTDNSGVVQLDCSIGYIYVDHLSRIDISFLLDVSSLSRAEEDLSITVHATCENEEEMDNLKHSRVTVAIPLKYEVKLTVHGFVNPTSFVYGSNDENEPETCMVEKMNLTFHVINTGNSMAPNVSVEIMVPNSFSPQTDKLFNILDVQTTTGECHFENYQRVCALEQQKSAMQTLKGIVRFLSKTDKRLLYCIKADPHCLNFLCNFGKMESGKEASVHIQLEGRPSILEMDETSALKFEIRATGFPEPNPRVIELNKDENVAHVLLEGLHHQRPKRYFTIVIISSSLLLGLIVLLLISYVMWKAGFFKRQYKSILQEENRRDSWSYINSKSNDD
# VLA-4, sequence (P05556 21-798): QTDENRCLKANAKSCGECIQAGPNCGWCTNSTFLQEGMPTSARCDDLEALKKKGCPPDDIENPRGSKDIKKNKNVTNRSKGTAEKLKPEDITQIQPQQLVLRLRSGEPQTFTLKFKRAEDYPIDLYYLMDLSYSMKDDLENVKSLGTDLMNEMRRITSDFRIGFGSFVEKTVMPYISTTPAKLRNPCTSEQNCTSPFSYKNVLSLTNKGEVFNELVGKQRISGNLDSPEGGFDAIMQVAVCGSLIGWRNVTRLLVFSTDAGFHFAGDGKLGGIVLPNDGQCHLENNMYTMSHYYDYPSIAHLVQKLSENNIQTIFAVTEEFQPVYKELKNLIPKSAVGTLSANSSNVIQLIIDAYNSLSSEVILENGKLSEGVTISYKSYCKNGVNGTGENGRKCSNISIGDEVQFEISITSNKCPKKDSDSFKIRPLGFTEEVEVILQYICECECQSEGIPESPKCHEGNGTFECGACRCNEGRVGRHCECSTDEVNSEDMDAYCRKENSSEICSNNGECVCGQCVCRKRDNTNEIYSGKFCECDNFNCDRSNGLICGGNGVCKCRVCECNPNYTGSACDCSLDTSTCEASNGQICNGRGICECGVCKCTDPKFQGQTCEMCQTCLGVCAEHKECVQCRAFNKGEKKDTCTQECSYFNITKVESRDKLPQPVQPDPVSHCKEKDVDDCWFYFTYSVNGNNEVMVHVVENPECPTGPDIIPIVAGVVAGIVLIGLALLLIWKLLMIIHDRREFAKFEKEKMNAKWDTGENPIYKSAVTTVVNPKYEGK
row,Relative Potency,Compound
1,4,CC1(C)SSC[C@H](C(N)=O)NC(=O)[C@H](Cc2ccccc2)NC(=O)[C@H](CC(=O)O)NC(=O)[C@H]1NC(=O)Cc1ccccc1 [.phi.AcJDFc-NH2] (PhAc-[Pen]DF[dC]-NH2; disulfide 1-4)
2,9,"CC(C)C[C@@H]1NC(=O)[C@H](Cc2ccccc2)NC(=O)[C@H](CCC(=O)O)NC(=O)[C@@H](N)CSSC[C@@H](C(N)=O)NC(=O)[C@H]([C@@H](C)O)NC(=O)[C@H](CO)NC(=O)[C@@H]2CCCN2C(=O)[C@H](Cc2ccccc2)NC(=O)[C@H](CC(=O)O)NC1=O [SEQ ID NO:22, CEFLDFPSTC-NH2] (H-CEFLDFPSTC-NH2; disulfide 1-10)"
3,134,"CC(=O)N[C@H]1CSSC[C@@H](C(N)=O)NC(=O)[C@@H]2CCCN2C(=O)[C@H](Cc2ccccc2)NC(=O)[C@H](CC(=O)O)NC(=O)[C@H](CC(C)C)NC(=O)[C@H](Cc2ccccc2)NC1=O [SEQ ID NO:11, AcCFLDFPC-NH2] (Ac-CFLDFPC-NH2; disulfide 1-7)"
4,< 1,"NC(=O)[C@@H]1CCCN1C(=O)[C@@H]1CSSC[C@H](NC(=O)[C@@H](N)Cc2ccccc2)C(=O)N[C@@H](CC(=O)O)C(=O)N1 [SEQ ID NO:30, FCDCP-NH2] (H-FCDCP-NH2; disulfide 2-4)"
5,2,"ILDVPILDVP-NH2 [SEQ ID NO:26, ILDVPILDVP-NH2]"
6,9,"CC(C)C[C@@H]1NC(=O)[C@H](Cc2ccccc2)NC(=O)[C@H](CCC(=O)O)NC(=O)[C@@H]2CCCN2C(=O)CNC(=O)[C@@H](N)CSSC[C@@H](C(N)=O)NC(=O)[C@H](Cc2ccccc2)NC(=O)[C@H](CC(=O)O)NC1=O [SEQ ID NO:23, CGPEFLDFC-NH2] (H-CGPEFLDFC-NH2; disulfide 1-9)"

# The next lines start with the compound.
row,Compound,Relative Potency
1,"CC1(C)SSC[C@@H](C(N)=O)NC(=O)[C@H](Cc2ccccc2)NC(=O)[C@H](CC(=O)O)NC(=O)[C@H]1NC(=O)Cc1ccccc1 [SEQ ID NO:14, .phi.AcJDFC-NH2] (PhAc-[Pen]DFC-NH2; disulfide 1-4)",94
2,"CC(=O)N[C@@H](Cc1ccccc1)C(=O)N[C@@H](CS)C(=O)N[C@@H](CC(=O)O)C(=O)N[C@@H](Cc1ccccc1)C(=O)N[C@@H](CS)C(N)=O [SEQ ID NO:18, AcFCDFC-NH2] (Ac-FCDFC-NH2)",41
3,"CC(C)C[C@@H]1NC(=O)[C@H](Cc2ccccc2)NC(=O)[C@H](CCC(=O)O)NC(=O)[C@@H]2CCCN2C(=O)[C@@H](N)CSSC[C@@H](C(N)=O)NC(=O)[C@H](CO)NC(=O)[C@@H]2CCCN2C(=O)[C@H](Cc2ccccc2)NC(=O)[C@H](CC(=O)O)NC1=O [SEQ ID NO:19, CPEFLDFPSC-NH2] (H-CPEFLDFPSC-NH2; disulfide 1-10)",6
4,"CC(C)C[C@@H]1NC(=O)[C@H](Cc2ccccc2)NC(=O)[C@H](CCC(=O)O)NC(=O)[C@@H](N)CSSC[C@@H](C(N)=O)NC(=O)[C@H](CO)NC(=O)[C@@H]2CCCN2C(=O)[C@H](Cc2ccccc2)NC(=O)[C@H](CC(=O)O)NC1=O [SEQ ID NO:24, CEFLDFPSC-NH2] (H-CEFLDFPSC-NH2; disulfide 1-9)",6
5,"CC(C)C[C@@H]1NC(=O)[C@H](Cc2ccccc2)NC(=O)[C@H](CCC(=O)O)NC(=O)[C@@H](N)CSSC[C@@H](C(N)=O)NC(=O)[C@@H]2CCCN2C(=O)[C@H](Cc2ccccc2)NC(=O)[C@H](CC(=O)O)NC1=O [SEQ ID NO:20, CEFLDFPC-NH2] (H-CEFLDFPC-NH2; disulfide 1-8)",19
6,CC(=O)N[C@@H](CC(C)C)C(=O)N[C@@H](CC(=O)O)C(=O)N[C@@H](Cc1ccccc1)C(N)=O [AcLDF-NH2] (Ac-Leu-Asp-Phe-NH2),< 1
7,"NC(=O)[C@@H]1CSSC[C@H](NC(=O)[C@@H](N)Cc2ccccc2)C(=O)N[C@@H](CC(=O)O)C(=O)N[C@@H](Cc2ccccc2)C(=O)N1 [SEQ ID NO:25, FCDFC-NH2] (H-FCDFC-NH2; disulfide 2-5)",3
8,"CC(C)C[C@@H]1NC(=O)[C@H](CCC(=O)O)NC(=O)[C@@H]2CCCN2C(=O)[C@@H](N)CSSC[C@@H](C(N)=O)NC(=O)[C@H](CO)NC(=O)[C@@H]2CCCN2C(=O)[C@H](Cc2ccccc2)NC(=O)[C@H](CC(=O)O)NC1=O [SEQ ID NO:33, CPELDFPSC-NH2] (H-CPELDFPSC-NH2; disulfide 1-9)",31
9,"CC(C)C[C@@H]1NC(=O)[C@H](Cc2ccccc2)NC(=O)[C@H](CCC(=O)O)NC(=O)[C@@H]2CCCN2C(=O)[C@@H](N)CSSC[C@@H](C(N)=O)NC(=O)[C@@H]2CCCN2C(=O)[C@H](Cc2ccccc2)NC(=O)[C@H](CC(=O)O)NC1=O [SEQ ID NO:16, CPEFLDFPC-NH2] (H-CPEFLDFPC-NH2; disulfide 1-9)",56

# Same assay, conditions: Table 2; normalized IC50 potency relative to standard peptide SEQ ID NO:6; Jurkat cells, CS-1
row,Relative Potency,Compound
1,254,CC(C)C[C@@H]1NC(=O)[C@H](Cc2ccccc2)NC(=O)[C@@H](N)CSSC[C@@H](C(N)=O)NC(=O)[C@@H]2CCCN2C(=O)[C@H](Cc2ccccc2)NC(=O)[C@H](CC(=O)O)NC1=O [drawing 7] (H-CFLDFPC-NH2; disulfide 1-7)
2,131,NC(=O)[C@@H]1CSSC[C@H](NC(=O)[C@@H](N)Cc2ccccc2)C(=O)N[C@@H](CC(=O)O)C(=O)N[C@@H](Cc2ccccc2)C(=O)N2CCC[C@H]2C(=O)N1 [drawing 11] (H-FCDFPC-NH2; disulfide 2-6)
3,3.13,NC(=O)[C@@H]1CSSC[C@H](NC(=O)[C@H](N)Cc2ccccc2)C(=O)N[C@@H](CC(=O)O)C(=O)N[C@@H](Cc2ccccc2)C(=O)N1 (H-[dF]CDFC-NH2; disulfide 2-5)
4,135,CC(=O)N[C@H]1CSSC[C@@H](C(N)=O)NC(=O)[C@@H]2CCCN2C(=O)[C@H](Cc2ccccc2)NC(=O)[C@H](CC(=O)O)NC(=O)[C@H](CC(C)C)NC(=O)[C@H](Cc2ccccc2)NC1=O [drawing 10] (Ac-CFLDFPC-NH2; disulfide 1-7)

# Further lines, the compound ahead of its results:
row,Compound,Relative Potency
1,CC(C)C[C@@H]1NC(=O)[C@H](Cc2ccccc2)NC(=O)[C@H](CCC(=O)O)NC(=O)[C@@H](N)CSSC[C@@H](C(N)=O)NC(=O)[C@H](CO)NC(=O)[C@@H]2CCCN2C(=O)[C@H](Cc2ccccc2)NC(=O)[C@H](CC(=O)O)NC1=O [drawing 34] (H-CEFLDFPSC-NH2; disulfide 1-9),6.26
2,CC(C)C[C@@H]1NC(=O)[C@H](Cc2ccccc2)NC(=O)[C@H](CCC(=O)O)NC(=O)[C@@H]2CCCN2C(=O)[C@@H](N)CSSC[C@@H](C(N)=O)NC(=O)[C@H](CO)NC(=O)[C@@H]2CCCN2C(=O)[C@H](Cc2ccccc2)NC(=O)[C@H](CC(=O)O)NC1=O [drawing 35] (H-CPEFLDFPSC-NH2; disulfide 1-10),6.26
3,NC(=O)[C@@H]1CSSC[C@H](NC(=O)[C@@H](N)Cc2ccccc2)C(=O)N[C@@H](CC(=O)O)C(=O)N[C@@H](Cc2ccccc2)C(=O)N1 [drawing 39] (H-FCDFC-NH2; disulfide 2-5),2.52
4,CC(=O)N[C@@H](Cc1ccccc1)C(=O)N[C@H]1CSSC[C@@H](C(N)=O)NC(=O)[C@H](Cc2ccccc2)NC(=O)[C@H](CC(=O)O)NC1=O [drawing 21] (Ac-FCDFC-NH2; disulfide 2-5),52.6
5,CC(C)C[C@@H]1NC(=O)[C@H](Cc2ccccc2)NC(=O)[C@@H](N)CSSC[C@@H](C(N)=O)NC(=O)[C@H](CO)NC(=O)[C@@H]2CCCN2C(=O)[C@H](Cc2ccccc2)NC(=O)[C@H](CC(=O)O)NC1=O [drawing 12] (H-CFLDFPSC-NH2; disulfide 1-8),122
6,CC(C)C[C@@H]1NC(=O)[C@H](Cc2ccccc2)NC(=O)[C@H](CCC(=O)O)NC(=O)[C@@H]2CCCN2C(=O)CNC(=O)[C@@H](N)CSSC[C@@H](C(N)=O)NC(=O)[C@H](Cc2ccccc2)NC(=O)[C@H](CC(=O)O)NC1=O [drawing 30] (H-CGPEFLDFC-NH2; disulfide 1-9),9.39
